# According to patent EP0369035A1, “AGENT FOR TREATING PANCREATITIS OR THE LIKE” (priority 1988, dated 1989):
# Read-outs that look alike come from different tables or passages of the source.
# How the values were obtained:
# experimental DIC = test: Effect on experimental DIC and MOF (endotoxin-induced); format: in vivo, SD-rats; settings: rat, 4 hours after endotoxin 10 mg/kg; for CPK: Table 5-1
# Method: [III] Effect on experimental DIC
# SD-rats, body weight of about 200 g, were starved overnight. Sodium pentobarbital was intraperioneally administered to anesthetize a rat, and then a cannula was inserted to the femoral vein, and the test substance dissolved in an injective 5% glucose solution was continually infused. Then, 10 minutes from the start of the injection, endotoxin (E. coli 0127:B8, Difco, U.S.) dissolved in physiological saline was injected through the tail vein to an amount of 10 mg/kg body weight, and 4 hours from the administration of endotoxin, the abdomen was opened, blood was obtained from the abdominal aorta, and platelets (Plt), fibrinogen (Fbg), fibrin degradation product (FDP), glutamic oxaloacetic transamirase (GOT), creatinine phosphokinase (CPK), and blood urin nitrogen (BUN) were measured.
# [1] = system: experimental pancreatitis; test: Effect on experimental pancreatitis (sodium taurochorate + trypsin into the common bile duct), survival ratio; format: in vivo, SD-rats; parameters: Effect on experimental pancreatitis (100 mg/kg p.o.) After 24 hours / Effect on experimental pancreatitis (100 mg/kg p.o.) After 48 hours / Effect of existing control drug on experimental pancreatitis After 24 hours: unit not given here; settings: rat; for Effect on experimental pancreatitis Survival ratio(%) After 24 hours / Effect on experimental pancreatitis Survival ratio(%) After 48 hours: 80 μg/kg/min. x 80 min. continuous infusion; for Effect on experimental pancreatitis (100 mg/kg p.o.) After 24 hours / Effect on experimental pancreatitis (100 mg/kg p.o.) After 48 hours / Effect of existing control drug on experimental pancreatitis After 24 hours: survival ratio; for Effect on experimental pancreatitis (100 mg/kg p.o.) After 24 hours / Effect on experimental pancreatitis (100 mg/kg p.o.) After 48 hours: 100 mg/kg p.o. 30 minutes before pancreatitis
# Description: [II] Effect on experimental pancreatitis
# SD-rats, body weight of about 200 g were, starved overnight, and 10 to 24 animals were used in one group. Sodium pentobarbital was intraperioneally administered to anesthetize each rat, and then a cannula was inserted to the femoral vein for the administration of the test substance. After abdominal surgery, the bile duct was blocked at a part thereof proximate to the liver, by a clip, a polyethylene tube was inserted to the common bile duct at a part thereof most proximate to the duodenum, and 0.1 ml of solution containing 2 mg sodium taurochorate and 1000 U trypsin dissolved in physiological saline was injected retrogrodely. After removal of the clip and tube, the common bile duct was ligated and the abdomen was closed. Note, the test substance was dissolved in an injective 5% glucose solution, and in the case of a continuous infusion, the solution was administered over 80 minutes starting from 10 minutes before the generation of pancreatitis. In the case of oral administration, the test substance was administered through an oral catheter 30 minutes before the generation of pancreatitis. After 24 hours and 48 hours from the generation of pancreatitis, the survival ratio of the animals was calculated and compared with a control group.
# human plasma kallikrein = target: T1, human plasma kallikrein (Homo sapiens, UniProt P03952); test: Anti-plasma kallikrein activity: inhibition of S-2302 degradation; format: biochemical
# T1 construct: 50 µl of 0.12 units/ml human plasma kallikrein solution
# T1 sequence (P03952 391-638 limits assumed): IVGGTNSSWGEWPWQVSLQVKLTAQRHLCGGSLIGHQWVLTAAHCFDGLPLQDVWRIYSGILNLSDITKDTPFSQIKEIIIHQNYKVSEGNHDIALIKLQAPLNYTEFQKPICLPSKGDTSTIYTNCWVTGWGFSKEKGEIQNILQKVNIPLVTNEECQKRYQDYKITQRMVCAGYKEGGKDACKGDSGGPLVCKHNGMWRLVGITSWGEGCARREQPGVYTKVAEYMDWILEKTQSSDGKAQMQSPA
# T1 sequence (P03952 20-390 partner limits assumed): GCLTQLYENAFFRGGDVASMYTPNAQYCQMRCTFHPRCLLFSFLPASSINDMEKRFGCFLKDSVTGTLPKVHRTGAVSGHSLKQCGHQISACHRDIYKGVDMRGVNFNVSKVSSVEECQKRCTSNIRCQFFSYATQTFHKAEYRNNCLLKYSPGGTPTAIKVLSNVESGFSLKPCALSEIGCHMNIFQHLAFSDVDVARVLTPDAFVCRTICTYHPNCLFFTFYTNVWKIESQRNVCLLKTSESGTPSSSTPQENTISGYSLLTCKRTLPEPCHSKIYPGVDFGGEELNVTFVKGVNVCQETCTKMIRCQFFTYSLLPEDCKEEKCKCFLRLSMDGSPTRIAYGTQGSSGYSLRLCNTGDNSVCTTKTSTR
# Method: 2) Assay of anti-plasma kallikrein activity Assay method of inhibition of S-2302 degradation
# (§1) The test substance was dissolved in a 0.05 M Tris-HC1 (pH 7.8) buffer to make a total volume of 400 µl, and 50 µl of a 2 mM S-2302 solution was added to the solution. After incubation at 37°C for 5 minutes in an incubator, an addition of 50 µl of 0.12 units/ml human plasma kallikrein solution, and incubation at 37°C for 5 minutes, the reaction was terminated by an addition of 50 µl of 50% acetic acid.
# experimental shock = test: Effect on experimental shock (endotoxin-induced), survival ratio; format: in vivo, ICR-mice; settings: dose of 30 mg/kg intraperitoneally 15 minutes before endotoxin 40 mg/kg, mouse
# Method: [IV] Effect on experimental shock
# ICR-mice, body weight of about 25 g, were starved overnight. The test substance was dissolved in an injective 5% glucose solution and intraperioneally administered, and 15 minutes later, endotoxin (E. coli 0127:B8, Difco, U.S.) dissolved in a physiological saline was intraperioneally administered to an amount of 40 mg/kg body weight.
# human plasmin [2] = target: T2, human plasmin (Homo sapiens, UniProt P00747); test: Anti-plasmin activity: inhibition of S-2251 degradation; format: biochemical
# T2 construct: 50 µl of 0.2 casein units/ml of human plasmin
# T2 sequence (P00747 581-810 limits assumed): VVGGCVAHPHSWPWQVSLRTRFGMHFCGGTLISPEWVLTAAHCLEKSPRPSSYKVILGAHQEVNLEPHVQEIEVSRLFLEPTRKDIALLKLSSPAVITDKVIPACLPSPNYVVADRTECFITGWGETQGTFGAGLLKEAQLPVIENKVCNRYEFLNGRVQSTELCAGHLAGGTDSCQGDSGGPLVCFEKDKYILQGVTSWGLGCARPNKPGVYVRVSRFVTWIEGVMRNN
# T2 sequence (P00747 97-580 partner limits assumed): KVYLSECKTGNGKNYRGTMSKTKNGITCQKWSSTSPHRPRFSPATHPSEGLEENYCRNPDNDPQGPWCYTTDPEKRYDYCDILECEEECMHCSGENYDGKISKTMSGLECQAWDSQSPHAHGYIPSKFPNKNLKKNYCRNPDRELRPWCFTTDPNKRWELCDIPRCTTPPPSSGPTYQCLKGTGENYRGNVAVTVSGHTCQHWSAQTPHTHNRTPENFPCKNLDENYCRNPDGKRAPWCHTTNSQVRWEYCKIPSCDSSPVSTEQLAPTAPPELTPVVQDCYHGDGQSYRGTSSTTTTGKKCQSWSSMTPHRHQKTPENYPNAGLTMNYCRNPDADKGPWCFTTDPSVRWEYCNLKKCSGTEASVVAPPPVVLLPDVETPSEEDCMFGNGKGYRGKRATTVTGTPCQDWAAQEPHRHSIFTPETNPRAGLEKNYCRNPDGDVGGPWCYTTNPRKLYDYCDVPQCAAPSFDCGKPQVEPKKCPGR
# Method: ii) Assay method of inhibition of S-2251 degradation
# The test substance was dissolved in a 0.05 M Tris-HC1 (pH7.4) buffer to make a total volume of 400 µl, and 50 µl of a 3 mM S-2251 solution was added to the solution. The mixture was incubated at 37°C for 5 minutes in an incubator, and after the addition of 50 µl of 0.2 casein units/ml of human plasmin, and incubation at 37°C for 4 minutes, the reaction was terminated by an addition of 50 µl of 50% acetic acid.
# human urokinase = human urokinase (Homo sapiens, UniProt P00749); test: Anti-urokinase activity: inhibition of S-2444 degradation; format: biochemical; settings: substrate S-2444, 37°C, pH 8.8; read-out: Urokinase S-2444 (I50)
# Method: 3) Assay of anti-urokinase activity Assay method of inhibition of S-2444 degradation
# as §1, with “8.8)” for “7.8)”, “1” for “2”, “S-2444” for “S-2302”, “mixture.” for “solution.”, “500” for “0.12”, “urokinase” for “plasma kallikrein”
# human plasmin [3] = target: T2, human plasmin; test: Anti-plasmin activity: inhibition of fibrinolysis (fibrin clot lysis time); format: biochemical
# [4] = Measurement of half life in blood; format: in vivo; settings: rat, iv, administered to the tail vein, SD-rats, plasma, HPLC
# Method: [VI] Measurement of half life in blood
# SD-rats 6 to 7 weeks old were used. The test substance was dissolved in an injective 5% glucose solution and administered to the tail vein. After the administration, blood samples were periodically obtained from the great vein and placed into heparinized test tubes. Plasma was separated by centrifugation and the test substance was extracted with ethyl acetate. After removal of the solvent, the residue was dissolved in 200 µl of methanol, and analyzed by high performance liquid chromatography. From the change of the concentration of the test substance in blood with time, a half life thereof in blood was calculated.
# in vivo = settings: mouse, intravenous, ICR male mice, up-and-down method, read-out: Acute toxicity (LD50)
# Method: ICR male mice 5 to 10 weeks old were used. The test substance was dissolved in a 5% dimethylsulfoxide aqueous solution, and the solution was intravenously administered in an amount of 0.1 to 0.2 ml/10 g body weight. An LD50 value was calculated by up-and-down method.
# bovine factor Xa = target: T3, bovine factor Xa (Bos taurus, UniProt P00743); test: Anti-FXa activity: inhibition of S-2222 degradation; format: biochemical
# T3 construct: 0.05 ml of 0.3 vial/ml bovine factor Xa
# T3 sequence (P00743 234-492 limits assumed): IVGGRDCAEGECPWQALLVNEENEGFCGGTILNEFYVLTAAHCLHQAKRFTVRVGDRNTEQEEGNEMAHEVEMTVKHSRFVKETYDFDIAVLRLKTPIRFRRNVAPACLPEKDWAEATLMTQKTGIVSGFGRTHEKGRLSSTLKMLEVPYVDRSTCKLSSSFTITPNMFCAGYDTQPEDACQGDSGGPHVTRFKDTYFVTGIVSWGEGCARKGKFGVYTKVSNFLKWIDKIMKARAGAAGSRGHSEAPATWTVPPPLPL
# T3 sequence (P00743 41-180 partner limits assumed): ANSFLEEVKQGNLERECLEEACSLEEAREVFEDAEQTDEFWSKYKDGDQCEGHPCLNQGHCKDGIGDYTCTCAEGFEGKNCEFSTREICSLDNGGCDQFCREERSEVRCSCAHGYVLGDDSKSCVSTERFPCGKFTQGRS
# Method: 4) Assay of anti-FXa activity Assay method of inhibition of S-2222 degradation
# To 0.4 ml of the test substance dissolved in a 0.05 M Tris-HC1 (pH 8.3) buffer is added 0.05 ml of 3 mM S-2222 solution, and after incubation at 37°C for about 4 minutes, an addition of 0.05 ml of 0.3 vial/ml bovine factor Xa, and a reaction at 37°C for 4 minutes, the - reaction was terminated by adding 0.05 ml of 50% acetic acid.
# [5] = substrate S-2302, 37°C, pH 7.8, read-out: Plasma kallikrein S-2302 (I50)
# [6] = substrate S-2251, 37°C, pH7.4, read-out: Plasmin S-2251 (I50)
# [7] = concentration giving a fibrin clot lysis time twice that of control, 37°C, pH7.4, read-out: Plasmin Fibrin (I50)
# [8] = substrate S-2222, 37°C, pH 8.3, read-out: FXa S-2222 (I50)
Compound,BUN (experimental DIC; Dose 10 μg/kg/min infusion) [mg/dL],FDP (experimental DIC; Dose 10 μg/kg/min infusion) [µg/mL],Fbg (experimental DIC; Dose 10 μg/kg/min infusion) [mg/dL],GOT (experimental DIC; Dose 10 μg/kg/min infusion) [U/ml],Plat (experimental DIC; Dose 10 μg/kg/min infusion),Effect on experimental pancreatitis Survival ratio(%) After 24 hours [1] [%],Effect on experimental pancreatitis Survival ratio(%) After 48 hours [1] [%],Effect on experimental pancreatitis (100 mg/kg p.o.) After 24 hours [1],Effect on experimental pancreatitis (100 mg/kg p.o.) After 48 hours [1],IC50 (human plasma kallikrein; [5]) [µM],Effect on experimental shock (Survival ratio (%) after 24 hours) (experimental shock) [%],IC50 (human plasmin [2]; [6]) [µM],IC50 (human urokinase) [µM],IC50 (human plasmin [3]; [7]) [µM],half-life [4] [min],LD50 (in vivo) [mg/kg],IC50 (bovine factor Xa; [8]) [µM],also measured
NC[C@H]1CC[C@H](C(=O)N[C@@H](Cc2ccc([N+](=O)[O-])cc2)C(=O)Nc2ccc(C(=O)c3ccccc3)cc2)CC1 [Compound 10],32 ± 2,16 to 128,109 ± 30,302 ± 29,68 ± 8 x 10^4/μl,50.0,33.3,66.7,53.3,2.7,79,7,5,1.8,6.8,85,–,BUN (experimental DIC; Dose 100 μg/kg/min infusion): 30 ± 2 mg/dL; FDP (experimental DIC; Dose 100 μg/kg/min infusion): 16 to 128 µg/mL; Fbg (experimental DIC; Dose 100 μg/kg/min infusion): 128 ± 32 mg/dL; GOT (experimental DIC; Dose 100 μg/kg/min infusion): 258 ± 60 U/ml; Plat (experimental DIC; Dose 100 μg/kg/min infusion): 66 ± 10 x 10^4/μl; CPK (experimental DIC; Dose 100 μg/kg/min infusion): 20 ± 5 U/1
CC(=O)c1ccc(NC(=O)[C@H](Cc2ccc(OCc3ccccn3)cc2)NC(=O)[C@H]2CC[C@H](CN)CC2)cc1 [Compound 6],26 ± 2,8 to 32,179 ± 15,196 ± 28,95 ± 14 x 10^4/μl,62.5,54.1,66.7,53.3,2,70,2.7,75,1.4,12.2,85,160,BUN (experimental DIC; Dose 1 μg/kg/min infusion): 36 ± 2 mg/dL; FDP (experimental DIC; Dose 1 μg/kg/min infusion): 32 to 65 µg/mL; Fbg (experimental DIC; Dose 1 μg/kg/min infusion): 140 ± 18 mg/dL; GOT (experimental DIC; Dose 1 μg/kg/min infusion): 217 ± 29 U/ml; Plat (experimental DIC; Dose 1 μg/kg/min infusion): 68 ± 11 x 10^4/μl; CPK (experimental DIC; Dose 10 μg/kg/min infusion): 22 ± 6 U/1
NC[C@H]1CC[C@H](C(=O)N[C@@H](Cc2ccc(OCc3ccccc3)cc2)C(=O)Nc2ccc(CC(=O)O)cc2)CC1 [Compound 8],–,–,–,–,–,58.3,58.3,58.3,33.3,3,–,25,260,9.2,10.6,> 100,290,–
NC[C@H]1CC[C@H](C(=O)N[C@@H](Cc2ccc(OCc3ccccc3)cc2)C(=O)Nc2cccnc2)CC1 [Compound 1],28 ± 3,16 to 32,146 ± 7,299 ± 63,65 ± 6 x 10^4/μl,55.5,29.1,–,–,1.7,82,6.1,45,2.9,15.3,70,–,–
CC(=O)c1ccc(NC(=O)[C@H](Cc2ccc(OCc3cccc(Cl)c3)cc2)NC(=O)[C@H]2CC[C@H](CN)CC2)cc1 [Compound 3],40 ± 5,8 to 64,160 ± 13,133 ± 4,78 ± 7 x 10^4/μl,–,–,–,–,0.38,67,0.8,40,0.1,–,> 100,35,CPK (experimental DIC; Dose 10 μg/kg/min infusion): 14 ± 2 U/1
NCC1CCC(C(=O)NC(Cc2ccc(OCc3ccccn3)cc2)C(=O)Nc2ccc(C(=O)O)cc2)CC1 (stereo not drawn) [Compound 20],–,–,–,–,–,58.3,41.7,58.3,41.7,1.4,–,65,–,32,14,> 100,700,–
"CCOC(=O)c1ccc(OC(=O)CCCCCNC(=N)N)cc1 [FOY, gabexate mesilate, reference compound]",–,–,–,–,–,–,–,–,–,–,–,–,1.3,–,–,248,–,Effect of existing control drug on experimental pancreatitis After 24 hours ([1]; 250 μg/kg/min x 80 min): 16.6; Effect of existing control drug on experimental pancreatitis After 24 hours ([1]; 1000 μg/kg/min x 80 min): 42.0; IC50 (human plasma kallikrein): 1.3 µM; IC50 (human plasmin [2]): 3.4 µM; IC50 (bovine factor Xa): 43 µM; IC50 (human plasmin [3]): 3 µM; half-life ([4]; in vivo): 0.4 min
